Where two headings read alike, the source gives them in different places.

Experiment [1] relates to agonist-dependent nuclear export of HDAC5. Description: HDAC5 nuclear export assay (GFP-HDAC5, Cellomics imaging). It counts as cell-based. Particulars: Rattus norvegicus, Ventricular myocyte, 2 h, read-out: Inhibitory Activity HDAC. On the procedure: Compounds are evaluated in the HDAC5 nuclear export assay, a 384-well plate-based assay that enables high throughput screening (HTS) to identify small molecules that block agonist-dependent nuclear export of HDAC5. […] Neonatal rat ventricular myocytes (NRVMs) are infected with GFP-HDAC5 encoding virus and plated on gelatin-coated 384-well dishes. […] Following two hours of stimulation, cells are fixed and GFP-HDAC5 localization quantified using the Cellomics system, which provides a read-out of relative fluorescence intensity in the cytoplasmic versus nuclear compartment.

A further experiment addresses T1, protein kinase D2 (PKD2) (Homo sapiens, UniProt Q9BZL6).
T1 construct: This assay is performed with full length wild-type enzyme purchase from Invitrogen; purchased Invitrogen
T1 sequence (Q9BZL6 1-878): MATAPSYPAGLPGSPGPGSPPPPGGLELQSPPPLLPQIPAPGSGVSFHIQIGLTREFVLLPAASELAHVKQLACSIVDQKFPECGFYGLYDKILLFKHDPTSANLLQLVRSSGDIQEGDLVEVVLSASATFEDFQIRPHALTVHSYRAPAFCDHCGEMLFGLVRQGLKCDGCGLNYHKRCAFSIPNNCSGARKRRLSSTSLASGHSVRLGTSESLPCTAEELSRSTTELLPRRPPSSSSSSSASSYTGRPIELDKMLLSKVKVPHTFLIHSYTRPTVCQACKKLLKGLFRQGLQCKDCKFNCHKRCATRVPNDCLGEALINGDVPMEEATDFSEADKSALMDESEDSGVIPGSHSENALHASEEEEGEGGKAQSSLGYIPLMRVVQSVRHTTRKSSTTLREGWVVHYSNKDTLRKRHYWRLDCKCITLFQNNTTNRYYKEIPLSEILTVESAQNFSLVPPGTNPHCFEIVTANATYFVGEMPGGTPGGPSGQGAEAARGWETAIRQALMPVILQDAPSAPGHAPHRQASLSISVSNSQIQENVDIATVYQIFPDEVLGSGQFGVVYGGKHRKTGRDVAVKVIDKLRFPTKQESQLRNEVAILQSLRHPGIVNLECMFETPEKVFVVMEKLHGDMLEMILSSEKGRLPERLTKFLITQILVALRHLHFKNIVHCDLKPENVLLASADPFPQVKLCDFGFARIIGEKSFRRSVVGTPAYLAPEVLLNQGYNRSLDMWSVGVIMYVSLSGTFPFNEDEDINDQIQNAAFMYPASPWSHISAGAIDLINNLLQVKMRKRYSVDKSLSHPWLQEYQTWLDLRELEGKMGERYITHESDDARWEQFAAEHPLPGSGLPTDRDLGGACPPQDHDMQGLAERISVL
Description: PKD2 TR-FRET (LANCE) kinase assay. Particulars: full length wild-type enzyme, 20 μM ATP, syntide-2 substrate; read-out: Inhibitory Activity PKD2. The experiment is classed as biochemical. The text has this: (§1) The assay to measure protein kinase D2 (PKD2) activity is a time-resolved fluorescence resonance transfer (TR-FRET) assay using PerkinElmer's LANCE™ technology. In this case, a biotinylated syntide-2 peptide is used as the substrate in this reaction. Phosphorylation of the syntide-2 substrate is detected by a specific antibody that recognizes the phosphorylated peptide. A second fluorophore, APC, is conjugated to streptavidin that binds the biotinylated syntide-2 peptide. […] Therefore, when the europium labeled secondary antibody binds on the phosphorylated peptide, it is brought into close contact with the APC and excites this fluorophore.
(§2) This assay is performed with full length wild-type enzyme purchase from Invitrogen. The reaction buffer consists of 35 mM Tris-HCl pH7.5, 5 mM MgCl2, 0.02% Tween-20, 20 μM ATP, 1 mM DTT and 0.2 μg/mL PKD2 enzyme. The enzyme reaction is initiated by the addition of 2 μM syntide-2 peptide substrate and the reaction carried out for 50 minutes at room temperature. The reaction is stopped by a stop/detection Buffer consisting of 50 mM EDTA, 0.18 mg/mL rabbit polyclonal anti-phospho Syntide-2 antibody, 0.5 nM europium labeled anti-rabbit IgG and 10 nM streptavidin conjugated APC. After a one hour incubation with the stop/detection buffer, the reaction is read on an Envision 2100 Reader using a LANCE™ Eu/APC dual protocol. […] IC50 values are calculated using an Activity Base (IDBS) software program.
A general note: Time-resolved FRET reads energy transfer from a long-lived donor to a nearby acceptor.

The target of another experiment is T2, protein kinase D1 (PKD1) (Homo sapiens, UniProt Q15139).
T2 construct: This assay is performed with full length wild-type enzyme that is expressed and purified from Sf9 insect cells; made in house; host or cells: Sf9 insect cells
T2 sequence (Q15139 1-912): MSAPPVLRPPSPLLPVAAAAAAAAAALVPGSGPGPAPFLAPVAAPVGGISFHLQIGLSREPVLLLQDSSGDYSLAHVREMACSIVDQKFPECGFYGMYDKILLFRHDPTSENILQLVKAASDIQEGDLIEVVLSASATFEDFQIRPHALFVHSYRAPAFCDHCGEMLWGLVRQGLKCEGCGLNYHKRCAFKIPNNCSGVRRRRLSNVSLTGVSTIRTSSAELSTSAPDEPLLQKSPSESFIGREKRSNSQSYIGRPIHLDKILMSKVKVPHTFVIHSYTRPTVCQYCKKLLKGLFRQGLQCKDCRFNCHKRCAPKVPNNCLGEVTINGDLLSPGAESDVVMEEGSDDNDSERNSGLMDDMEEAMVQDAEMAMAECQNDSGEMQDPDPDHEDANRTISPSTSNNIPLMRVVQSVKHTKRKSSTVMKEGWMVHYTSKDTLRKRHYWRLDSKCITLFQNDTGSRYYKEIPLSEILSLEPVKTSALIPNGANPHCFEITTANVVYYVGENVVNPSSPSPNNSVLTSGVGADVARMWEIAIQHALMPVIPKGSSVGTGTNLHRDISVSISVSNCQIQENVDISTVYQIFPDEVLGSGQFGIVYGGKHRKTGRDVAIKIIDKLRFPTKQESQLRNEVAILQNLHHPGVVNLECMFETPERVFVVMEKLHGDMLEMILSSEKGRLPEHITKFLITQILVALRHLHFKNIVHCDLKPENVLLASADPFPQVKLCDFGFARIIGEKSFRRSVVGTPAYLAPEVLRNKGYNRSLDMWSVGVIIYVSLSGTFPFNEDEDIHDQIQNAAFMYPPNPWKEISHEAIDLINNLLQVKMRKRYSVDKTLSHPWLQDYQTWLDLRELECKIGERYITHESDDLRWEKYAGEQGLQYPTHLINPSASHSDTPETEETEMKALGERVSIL
Description: PKD1 TR-FRET (LANCE) kinase assay. The experiment is classed as biochemical. The settings on record: full length wild-type enzyme, 20 μM ATP, syntide-2 substrate; read-out: Inhibitory Activity PKD1.
Source text: as §1, with “D1 (PKD1)” for “D2 (PKD2)”
as §2, with “that is expressed and purified” for “purchase”, “Sf9 insect cells.” for “Invitrogen.”, “PKD1” for “PKD2”, “APC.” for “APC. After a one hour incubation with the stop/detection buffer, the reaction is read on an Envision 2100 Reader using a LANCE™ Eu/APC dual protocol.”

The target in a further experiment is T3, protein kinase D3 (PKD3) (Homo sapiens, UniProt O94806).
T3 construct: This assay is performed with full length wild-type enzyme that is purchased from Invitrogen; purchased Invitrogen
T3 sequence (O94806 1-890): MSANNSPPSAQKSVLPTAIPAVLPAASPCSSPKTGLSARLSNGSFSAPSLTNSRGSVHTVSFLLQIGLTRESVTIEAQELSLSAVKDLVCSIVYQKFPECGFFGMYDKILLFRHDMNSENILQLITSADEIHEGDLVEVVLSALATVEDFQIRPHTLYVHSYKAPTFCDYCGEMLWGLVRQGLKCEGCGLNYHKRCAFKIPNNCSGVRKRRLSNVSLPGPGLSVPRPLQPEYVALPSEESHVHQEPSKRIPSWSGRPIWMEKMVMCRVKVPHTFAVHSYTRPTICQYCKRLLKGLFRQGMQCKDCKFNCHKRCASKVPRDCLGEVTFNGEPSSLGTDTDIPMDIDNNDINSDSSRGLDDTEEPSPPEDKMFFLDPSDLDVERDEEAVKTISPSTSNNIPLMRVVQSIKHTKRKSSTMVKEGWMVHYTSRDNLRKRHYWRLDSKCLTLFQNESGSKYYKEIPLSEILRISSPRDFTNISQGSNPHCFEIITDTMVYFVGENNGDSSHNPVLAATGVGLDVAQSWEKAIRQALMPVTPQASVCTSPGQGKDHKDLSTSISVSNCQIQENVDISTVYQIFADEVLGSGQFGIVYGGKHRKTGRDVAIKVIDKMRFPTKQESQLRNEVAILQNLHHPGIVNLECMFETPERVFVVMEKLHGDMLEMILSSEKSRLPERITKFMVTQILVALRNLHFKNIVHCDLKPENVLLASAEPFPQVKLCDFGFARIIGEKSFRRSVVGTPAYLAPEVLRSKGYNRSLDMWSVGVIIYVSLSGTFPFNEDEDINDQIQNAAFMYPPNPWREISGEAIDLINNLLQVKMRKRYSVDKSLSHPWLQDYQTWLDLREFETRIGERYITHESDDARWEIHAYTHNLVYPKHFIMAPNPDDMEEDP
In words: PKD3 TR-FRET (LANCE) kinase assay. The experiment is classed as biochemical. Particulars: full length wild-type enzyme, 20 μM ATP, syntide-2 substrate; read-out: Inhibitory Activity PKD3.
Source text: as §1, with “D3 (PKD3)” for “D2 (PKD2)”
as §2, with “that is purchased” for “purchase”, “PKD3” for “PKD2”, “buffer” for “Buffer”

Consider `C[C@@H]1CN(c2cc(C(N)=O)cc(-c3ccnc(NC4CCCCC4)c3)n2)CCN1` [2′-Cyclohexylamino-6-((R)-3-methylpiperazin-1-yl)-[2,4′]bipyridinyl-4-carboxylic acid amide], for which the IC50 worked out at 679 nM in experiment [1], 60 nM on protein kinase D2 (PKD2) and 6 nM at protein kinase D1 (PKD1).
As to `Cn1ccc(Nc2cc(-c3cc(C#N)cc(N4CCNCC4)n3)ccn2)n1` [2′-(1-Methyl-1H-pyrazol-3-ylamino)-6-piperazin-1-yl-[2,4′]bipyridinyl-4-carbonitrile], the IC50 was over 1000 nM in experiment [1] (neonatal rat ventricular myocytes, PGF2α stimulation, two hours); 76 nM on protein kinase D2 (PKD2); 8 nM at protein kinase D1 (PKD1).
Regarding `CC(C)Nc1cc(-c2cc(-c3cn[nH]c3)cc(N3CCNCC3)n2)ccn1` [iso-Propyl-[6-piperazin-1-yl-4-(1H-pyrazol-4-yl)-[2,4′]bipyridinyl-2′-yl]-amine], the IC50 in experiment [1] was 92 nM; on protein kinase D2 (PKD2) it was 3 nM; at protein kinase D3 (PKD3), under 1 nM.

The record behind these values is US20110092505A1, “ORGANIC COMPOUNDS” (priority 2008, published 2011).
